Conditions in all cases: 48 h
Experiment [1] deals with CU-ACC1. In words: AC50 viability; higher = less potent. A digest of the protocol: (§1)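 Cells from three adrenocortical carcinoma lines were seeded at 500–1,000 cells/well in 5 µL medium in 1,536-well plates. Each library compound was added as 23 nL at 11 concentrations, and after 48 h CellTiter-Glo was added for 15 minutes at room temperature before reading luminescence. Plate-wise normalisation to vehicle and empty-well controls preceded curve fitting. AC50 and area under the curve were calculated only for inhibitory or non-responding curve classes.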

Experiment [2] relates to NCI-H295R. In words: area under concentration-response curve (viability) (AUC (a.u.)); higher = less active. In a few lines: as §1
The subject of experiment [3] is CU-ACC2. The experiment is described as above. In a few lines:
as §1

In experiment [4] the test system is CU-ACC1. The description is as above. In a few lines:
as §1

In turn, `OC[C@H](Cc1ccccc1)Nc1nc(Oc2ccc3c(c2)CCC3)nc2c1ncn2Cc1ccc(-c2ccccc2)cc1` yielded an AC50 viability in experiment [1] of 14.8 µM. Also, the “area under concentration-response curve” value in experiment [2] was 477; in experiment [3], 524; in experiment [4] it was 430.
The like results for `CC(C)(C)OC(=O)Nc1ccc(-c2cc(C(=O)NCCCCCCC(=O)NO)no2)cc1` were, in that order, 14.8 µM, 564, 598 and 479.
The like results for `COc1ccc([S+](=O)([O-])Nc2cccnc2Nc2ccc(O)cc2)cc1` were, in that order, 4.68 µM, 498, 569 and 479.
Taken in the same sequence, the figures for `O=C1CCc2cc(OCCCCc3nnnn3C3CCCCC3)ccc2N1` were 18.6 µM, 531, 579 and 468.
In turn, `Cc1nc2cnc3ccc(C#Cc4cccnc4)cc3c2n1-c1ccc(C(C)(C)C#N)cc1` came in with an AC50 viability in experiment [1] of 0.661 µM. Moreover, the “area under concentration-response curve” value in experiment [2] was found to be 492; in experiment [3], 557; in experiment [4], 402.
Taken in the same sequence, the figures for `O=C(O)c1nn(Cc2ccc(Cl)cc2Cl)c2ccccc12` were 1.66 µM, 440, 464 and 442.
Taken in the same sequence, the figures for `S=C(NCc1ccc2c(c1)OCO2)N1CCN(c2ncnc3c2oc2ccccc23)CC1` were 2.95 µM, 483, 567 and 383.
Taken in the same sequence, the figures for `Nc1nccc(-c2c(-c3ccc(F)cc3)ncn2C2CCCCC2)n1` were 14.8 µM, 556, 621 and 480.
As to `CCNC(=O)c1noc(-c2cc(C(C)C)c(O)cc2O)c1-c1ccc(CN2CCOCC2)cc1`, the AC50 viability in experiment [1] stood at 0.0118 µM. In addition, the “area under concentration-response curve” value in experiment [2] came out at 198; in experiment [3], 114; in experiment [4] it was 226.
For `[O-]C(=O)C1=C(C(=C(Cl)C(=C1Cl)Cl)Cl)C/2=C/3\C=C(I)/C(=O)/C(=C3OC4=C2C=C(I)C(=C4I)[O-])I`, in experiment [1], the AC50 viability stood at 13.2 µM. Besides, the figures for the “area under concentration-response curve” value in experiment [2], in experiment [3] and in experiment [4] were 417, 434 and 421, respectively.
In turn, `CNC(=O)c1c(F)cccc1Nc1nc(Nc2cc3c(cc2OC)CCN3C(=O)CN(C)C)nc2[nH]ccc12` had an AC50 viability in experiment [1] of 20.9 µM. The figures for the “area under concentration-response curve” value in experiment [2], in experiment [3] and in experiment [4] were 458, 526 and 524, respectively.
Taken in the same sequence, the figures for `CC(C)(C)NC(=O)Nc1cccc(Nc2ncc(F)c(NC(C)(C)CO)n2)c1` were 23.5 µM, 571, 652 and 525.
Taken in the same sequence, the figures for `COc1ccc(Cn2ccc3ccc(C(=O)NO)cc32)cc1` were 23.5 µM, 582, 625 and 524.
The like results for `COc1ccc2cc3[n+](cc2c1OC)CCc1cc2c(cc1-3)OCO2` were, in that order, 4.68 µM, 557, 573 and 444.
Turning to `CN[S+]([O-])(=O)NC1=NC=CC(=C1F)CC/2=C(C)/C3=CC=C(OC4=NC=CC=N4)C=C3OC2=O`, the AC50 viability in experiment [1] came to 7.42 µM. For the same compound, the “area under concentration-response curve” value in experiment [2] turned out to be 577; in experiment [3] it was 611; in experiment [4], 441.
The like results for `COC1CCN(CC1)C(=O)C2=CC(=CC=C2F)CC/3=N/NC(=O)C4=CC=CC=C34` were, in that order, 0.209 µM, 423, 457 and 441.
Taken in the same sequence, the figures for `Cc1cccc(CC(=O)N2CCc3c2ccc(-c2cn(C)c4ncnc(N)c24)c3F)n1` were 4.68 µM, 551, 644 and 487.
For the compound `CCc1c(C(=O)NNC(=O)[C@@H](O)c2cc(F)cc(F)c2)ccc(O)c1C`, in experiment [1], the AC50 viability was 26.3 µM. Besides, the “area under concentration-response curve” value amounted to 441 in experiment [2], 492 in experiment [3] and 387 in experiment [4].
Taken in the same sequence, the figures for `C[C@@H]1CC[C@@]2(CC[C@]3(C)\C(=C/C[C@@H]4[C@@]5(C)CC[C@H](O)C(C)(C)[C@@H]5CC[C@@]34C)[C@@H]2[C@H]1C)C(O)=O` were 9.34 µM, 419, 441 and 402.
Taken in the same sequence, the figures for `CN(C)C(=O)[C@H](O)[C@H](Cc1ccccc1)NC(=O)c1cc2cc(Cl)ccc2[nH]1` were 0.0118 µM, 444, 420 and 364.
Taken in the same sequence, the figures for `CCOCOC[C@H](C[C@H](C)C(=O)NO)NC(=O)c1ccc(Oc2ccccc2)cc1` were 23.5 µM, 595, 636 and 512.
Compound `Cn1c(=O)c2c(ncn2CC2OCCO2)n(C)c1=O` came in with an AC50 viability in experiment [1] of 0.00235 µM. Further, the “area under concentration-response curve” value in experiment [2] worked out at 452; in experiment [3], 375; in experiment [4] it was 294.
The like results for `Cc1cc(-c2ncc(CC(=O)Nc3ccc(-c4cnccn4)cn3)cc2C)ccn1` were, in that order, 7.42 µM, 500, 597 and 429.
Taken in the same sequence, the figures for `CCCn1c(=O)c2[nH]c(C34CC5CC3C[C@@H](C5)C4)nc2n(CCC)c1=O` were 26.3 µM, 489, 524 and 435.
`N[S+](=O)([O-])c1ccc(NC(=S)N2CCN(C/C=C/c3ccccc3)CC2)cc1` displayed an AC50 viability in experiment [1] of 20.9 µM. Further, the “area under concentration-response curve” value in experiment [2] was 523; in experiment [3] it was 583; in experiment [4] it was 494.
The like results for `COc1ccc(Cc2nccc3cc(OC)c(OC)cc23)cc1OC` were, in that order, 6.61 µM, 533, 583 and 384.
With `FC1=CC=C(SC/2=N/N3\C=N/C(=O)/C(=C3/C=C2)C4=C(Cl)C=CC=C4Cl)C(=C1)F`, the AC50 viability in experiment [1] was determined as 0.0372 µM. Moreover, the “area under concentration-response curve” value in experiment [2] stood at 541; in experiment [3] it was 562; in experiment [4], 453.
Taken in the same sequence, the figures for `CCC(=O)N[C@H]1CC[C@H](C(=O)N(C)c2ccc(-c3nc4ccccc4o3)cc2)C1` were 23.5 µM, 555, 661 and 548.
The like results for `CN(CC#C)C/C1=C/C2=CC=CC=C2OC3=CC=CC=C13` were, in that order, 33.2 µM, 546, 524 and 419.
The like results for `COc1nnc2ccc(N3CCC(c4ccc(OCCN5CCN(C)C(=O)[C@H]5C)cc4)CC3)nn12` were, in that order, 0.263 µM, 474, 449 and 468.
In experiment [1], `O=C(NOCCO)c1ccc2cncn2c1Nc1ccc(I)cc1F` yielded an AC50 viability of 14.8 µM. The results for the “area under concentration-response curve” value in experiment [2], in experiment [3] and in experiment [4] were 549, 598 and 461, respectively.
Taken in the same sequence, the figures for `CC(C)n1c(/C=C/[C@H](O)C[C@H](O)CC(=O)O)c(-c2ccc(F)cc2)c2ccccc21` were 10.5 µM, 567, 617 and 506.
The like results for `CC[C@H](C)C(=O)O[C@H]1CC\C=C2\C=C/[C@H](C)[C@H](CC[C@@H]3C[C@@H](O)CC(=O)O3)[C@@H]12` were, in that order, 14.8 µM, 484, 415 and 426.

These data come from the supplement of paper PMC10949913.
